Laboratory results taken from patent publication US11426402B2, “IRE1 activating compounds for use in therapy” (The Scripps Research Institute, priority 2019, dated 2022).

Assays:
extracellular Aβ = assay: Aβ in media conditioned on CHO 7WD10 cells (wild-type APP); type: cell-based; details: CHO 7WD10, APP WT
Experimental: 7PA2 or 7WD10 cells were cultured on 96-well plates (Corning) and treated with IRE1 activating compounds +/−4 μ8c overnight. The medium was then replaced at 50% volume with treatment remaing, culture medium was collected after 24 hours. The medium was analyzed by an AP ELISA as follows. Monoclonal 6E10 anti-Aβ(residues 1-17) mouse IgG1, (Biolegend) was coated in […] carbonate buffer, pH 9.6, at 4° C. overnight on high binding assay black plates (Costar), washed with TBST (tris buffered saline with 0.05% Tween 20) and blocked with 5% non-fat milk in TBST. Samples and standards (condition 7PA2 media) were incubated for 1.5 hr, followed by addition of 4G8 antibody [anti-Aβ residues 17-24, mouse IgG2b (Biolegend)] conjugated to horseradish peroxidase (hrp) and incubated for 1.5 hr at 25° C. After washing, ABM substrate was added, followed by detection with an absorbance plate reader.
ELISA was used to monitor Aβ in media conditioned on a CHO cell line stably expressing the destabilized, disease-associated V717F APP mutant (CHO^7PA2)^45 treated with or without compounds 198, 474, and 970. […] The reduction in A secretion can be attributed to IRE1 activation because the reduced extracellular accumulation of Aβ is blocked by co-treatment with the active site IRE1 inhibitor 4 μ8c (FIG. 5A).

CHO 7PA2 cells = assay: CHO 7PA2 viability; type: cell-based
IRE1 = IRE1 (Homo sapiens, UniProt O75460); assay: IRE1 phosphorylation by Phos-tag SDS-PAGE and immunoblotting in HEK293T cells; type: cell-based; details: test compound alone, 10 μM, 4 hours
Experimental: FIG. 3A-FIG. 3D. […] Error bars show SEM for n=3. […] Error bars show SEM for n=3. […] Error bars show SEM for n=3.
Cell lysates were prepared as previously described in RIPA buffer (50 mM Tris, pH 7.5, 150 mM NaCl, 0.1% SDS, 1% Triton X-100, 0.5% deoxycholate and protease inhibitor cocktail (Roche). Total protein concentration in cellular lysates was normalized using the Bio-Rad protein assay. Lysates were then denatured with 1× Laemmli buffer+100 mM DTT and boiled before being separated by SDS-PAGE. Samples were transferred onto nitrocellulose membranes (Bio-Rad) for immunoblotting and blocked with 5% milk in Tris-buffered saline, 0.5% Tween-20 (TBST) following incubation overnight at 4° C. with primary antibodies. Membranes were washed in TBST, incubated with IR-Dye conjugated secondary antibodies and analyzed using Odyssey Infrared Imaging System (LI-COR Biosciences). Quantification was carried out with LI-COR Image Studio software.
Compounds that activate IRE1 through binding the IRE1 kinase active site and inhibiting IRE1 autophosphorylation can elicit off-target activity likely associated with binding to other protein kinases.^20, 35, 36 Thus, the purpose of this example was to define the dependence of the present compounds on IRE1 kinase activity. HEK293T cells were treated with compound 198, 474, or 970 in the absence or presence of Tg, and IRE1 phosphorylation was monitored by using Phos-tag SDS-PAGE and immunoblotting. As a control, cells were treated with APY29—an IRE1 kinase site inhibitor that allosterically activates the IRE1 RNAse^20 in the absence or presence of Tg.

APP = APP immunoblots of lysates and conditioned media of CHO 7PA2 cells; type: cell-based; details: CHO 7PA2, 10 μM
Experimental: FIGS. 5A-5D. […] Cells were treated for 18 hours, media was then replaced and conditioned in the presence of treatments for 24 hours before harvesting for ELISA assay. Error bars represent SEM for n=3 replicates. Statistics calculated from one-tailed Student's t-test. *p<0.05, **p<0.01, ***p<0.001 (FIG. 5A). Quantification of media and lysate immunoblots from 474 treatment (10 μM) of APP. Error bars represent Standard Deviation for n=3 replicates. Statistics calculated from one-tailed Student's t-test. *p<0.05, **p<0.01 ***p<0.001 (FIG. 5B). Plot showing fraction of total remaining APP at each time point after S35 metabolic labeling of newly synthesized protein, accounting for the sum of APP in lysate and media. Error bars represent Standard Deviation for n=3 replicates. Statistics calculated from one-tailed Student's t-test. *p<0.05, **p<0.01, ***p<0.001 (FIG. 5C). Plot showing fraction of secreted APP collected at 2 hours after metabolic labeling. Error bars represent Standard Deviation for n=3 replicates. Statistics calculated from one-tailed Student's t-test. *p<0.05, **p<0.01, ***p<0.001 (FIG. 5D). […]

PERK target genes = assay: Liver RNA sequencing of DIO mice, PERK targets; type: in vivo, mouse; details: once-daily IP 50 mg/kg, 6 weeks
Experimental: FIGS. 7A-7D. RT-PCR of Xbp1s and the IRE1/XBP1s target gene Erdj4 from adipose tissue post single IP dose of 474 (FIG. 7A). Liver RNAseq profiles of ATF6, IRE1 and PERK target genes expressed as log 2 fold change of chronic 474 treatment compared to vehicle (FIG. 7B). Body weight (FIG. 7C) and food intake (FIG. 70) over 6 weeks of dosing.
To test the efficacy of pharmacologic IRE1 activation in mitigating T2D, we chronically administered 474 by once-daily IP injections at 50 mg/kg for a period of 6 weeks to Diet-Induced Obese (DIO) mice, a model of T2D.

ER proteostasis factors = assay: RNAseq expression of 124 proteostasis factors; type: cell-based, human
Experimental: Cells were lysed and total RNA collected using the RNeasy mini kit, according to manufacturer's instructions (Qiagen). Conventional RNA-seq was conducted via BGI Americas on the BGI Proprietary platform, providing single-end 50 bp reads at 20 million reads per sample. Alignment of sequencing data was done using DNAstar Lasergene SeqManPro to the GRCh37. p 13 human genome reference assembly, and assembly data were imported into ArrayStar 12.2 with QSeq (DNAStar Inc.) to quantify the gene expression levels and normalization to reads per kilobase per million (RPKM). Differential expression analysis and statistical significance calculations between different conditions was assessed using “DESeq” in R, compared to vehicle-treated cells, using a standard negative binomial fit of the RPKM data to generate Fold Change quantifications.
One of the mechanisms by which IRE1/XBP1s activation is protective is through the targeted transcriptional remodeling of ER proteostasis pathways. Because it was observed that compounds such as 474 and 970 selectively activate IRE1/XBP1s signaling, it was desired to confirm that these compounds similarly promote targeted ER proteostasis network remodeling. […]

IRE1, sequence (O75460 19-977): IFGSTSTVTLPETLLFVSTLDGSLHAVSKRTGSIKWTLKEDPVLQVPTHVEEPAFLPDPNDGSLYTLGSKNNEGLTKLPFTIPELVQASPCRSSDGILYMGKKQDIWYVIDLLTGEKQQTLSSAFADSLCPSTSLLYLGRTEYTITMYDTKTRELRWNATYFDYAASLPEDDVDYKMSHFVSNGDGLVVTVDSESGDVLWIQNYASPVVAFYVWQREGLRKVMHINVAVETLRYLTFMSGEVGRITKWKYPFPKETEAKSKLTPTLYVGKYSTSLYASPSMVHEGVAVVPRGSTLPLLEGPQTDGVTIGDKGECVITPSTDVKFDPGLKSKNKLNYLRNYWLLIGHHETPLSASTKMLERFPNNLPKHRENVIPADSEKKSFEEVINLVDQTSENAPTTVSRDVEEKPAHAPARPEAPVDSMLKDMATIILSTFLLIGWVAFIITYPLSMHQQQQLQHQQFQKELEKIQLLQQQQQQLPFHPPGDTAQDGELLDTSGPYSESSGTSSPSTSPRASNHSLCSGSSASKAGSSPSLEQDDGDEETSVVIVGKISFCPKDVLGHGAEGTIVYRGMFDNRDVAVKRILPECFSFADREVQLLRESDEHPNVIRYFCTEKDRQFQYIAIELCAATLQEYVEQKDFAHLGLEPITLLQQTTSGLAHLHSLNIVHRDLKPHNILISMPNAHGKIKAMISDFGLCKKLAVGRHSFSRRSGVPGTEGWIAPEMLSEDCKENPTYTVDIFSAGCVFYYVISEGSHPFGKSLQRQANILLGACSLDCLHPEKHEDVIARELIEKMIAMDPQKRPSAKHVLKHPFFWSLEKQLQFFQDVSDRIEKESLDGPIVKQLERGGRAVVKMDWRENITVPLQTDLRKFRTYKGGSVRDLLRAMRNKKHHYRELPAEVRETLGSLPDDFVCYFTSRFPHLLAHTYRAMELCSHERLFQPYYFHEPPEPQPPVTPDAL

CCOC(CNC(=O)C1CCCN(Cc2nc(-c3ccc(Cl)cc3)oc2C)C1)OCC (stereo not shown) [Compound 198]
extracellular Aβ in conditioned media (extracellular Aβ): reduced extracellular Aβ
CHO 7PA2 viability (CHO 7PA2 cells): did not significantly influence
phosphorylated IRE1 (IRE1): increased phosphorylated IRE1

Cc1ccc(OCCN(C)C(=O)Cn2cc(NC(=O)CCOc3ccccc3)cn2)cc1 [Compound 474]
APP levels in lysates and conditioned media (APP): reduced APP levels in both lysates and conditioned media
PERK target genes in liver (PERK target genes): no induction
extracellular Aβ in conditioned media (extracellular Aβ): reduced extracellular Aβ
CHO 7PA2 viability (CHO 7PA2 cells): did not significantly influence
phosphorylated IRE1 (IRE1): increased phosphorylated IRE1
remodeling of ER proteostasis factors relative to other compartments (ER proteostasis factors): selective remodeling

O=C(CN(Cc1ccc(Cl)cc1)S(=O)(=O)c1cccnc1)N1CCc2ccccc21 [Compound 970]
extracellular Aβ in conditioned media (extracellular Aβ): reduced extracellular Aβ
CHO 7PA2 viability (CHO 7PA2 cells): did not significantly influence
phosphorylated IRE1 (IRE1): increased phosphorylated IRE1
remodeling of ER proteostasis factors relative to other compartments (ER proteostasis factors): selective remodeling
